# Experimental data published in patent publication US20170015649A1, “N-Thio-anthranilamid compounds and their use as pesticides” (BASF SE, priority 2005, published 2017).
# Like-named read-outs stand apart in the source and are kept apart here.
# Key:
# [1] = test system: Southern Armyworm (Spodoptera eridania), 2nd Instar Larvae; experiment: whole plant or invertebrate; type: in vivo; settings: in Phaseolus lunatus, foliar, 120 h
# Description: The active compounds were formulated for testing the activity against insects and arachnids as a 10.000 ppm solution in a mixture of 35% acetone and water, which was diluted with water, if needed.
# A Sieva lima bean leaf was dipped in the test solution and allowed to dry. The leaf was then placed in a petri dish containing a filter paper on the bottom and ten 2nd instar caterpillars. At 5 days, observations are made of mortality and reduced feeding.
# [2] = test system: Silverleaf Whitefly (Bemisia argentifolii); experiment: Activity against silverleaf whitefly, cotton cotyledon dip; type: in vivo; settings: 72 h, cotyledons dipped, adults, 3 days after treatment
# Description: (§1) The active compounds were formulated in 50:50 acetone:water and 100 ppm Kinetic™ surfactant.
# Selected cotton plants were grown to the cotyledon state (one plant per pot). The cotyledons were dipped into the test solution to provide complete coverage of the foliage and placed in a well-vented area to dry. Each pot with treated seedling was placed in a plastic cup and 10 to 12 whitefly adults (approximately 3-5 day old) were introduced. The insects were collected using an aspirator and an 0.6 cm, non-toxic Tygon™ tubing (R-3603) connected to a barrier pipette tip. The tip, containing the collected insects, was then gently inserted into the soil containing the treated plant, allowing insects to crawl out of the tip to reach the foliage for feeding. The cups were covered with a reusable screened lid (150 micron mesh polyester screen PeCap from Tetko Inc). Test plants were maintained in the holding room at about 25° C. and 20-40% relative humidity for 3 days avoiding direct exposure to the fluorescent light (24 hour photoperiod) to prevent trapping of heat inside the cup. Mortality was assessed 3 days after treatment of the plants.
# [3] = test system: Mediterranean Fruitfly (Ceratitis capitata); experiment: Activity against Mediterranean fruitfly, eggs in microtiterplates; type: in vivo; settings: 144 h, eggs sprayed with 5 μl test solution, 6 days
# Description: 50 to 80 eggs were placed into microtiterplates filled with 0.5% agar-agar and 14% diet in water. […] Mortality was assessed on the basis of the agility of the hatched larvae. Tests were replicated 2 times.
# [4] = test system: Vetch Aphid (Megoura viciae); experiment: Activity against vetch aphid, bean leaf disks; type: in vivo; settings: foliar, 144 h
# Description: Bean leaf disks were placed into microtiterplates filled with 0.8% agar-agar and 2.5 ppm OPUS™. The leaf disks were sprayed with 2.5 μl of the test solution and 5 to 8 adult aphids were placed into the microtiterplates which were then closed and kept at 22-24° C. and 35-45% under fluorescent light for 6 days. Mortality was assessed on the basis of vital, reproduced aphids. Tests were replicated 2 times.
# [5] = test system: Boll Weevil (Anthonomus grandis); experiment: Activity against boll weevil, eggs in microtiterplates; type: in vivo; settings: eggs sprayed with 20 μl test solution, 3 to 5 days
# Description: 10 to 15 eggs were placed into microtiterplates filled with 2% agar-agar in water and 300 ppm formaline. […] Mortality was assessed on the basis of the remaining unhatched eggs or larvae on the agar surface and/or quantity and depth of the digging channels caused by the hatched larvae. Tests were replicated 2 times.
# [6] = test system: Cotton Aphid (Aphis gossypii); experiment: Activity against cotton aphid, cotton cotyledon dip; type: in vivo; settings: 120 h, cotyledons dipped, after 5 days
# Source text: as §1
# Cotton plants at the cotyledon stage (one plant per pot) were infested by placing a heavily infested leaf from the main colony on top of each cotyledon. The aphids were allowed to transfer to the host plant overnight, and the leaf used to transfer the aphids was removed. The cotyledons were dipped in the test solution and allowed to dry. After 5 days, mortality counts were made.
# [7] = test system: Tobacco Budworm (Heliothis virescens); experiment: whole plant or invertebrate; settings: 144 h
# [8] = test system: Diamond Back Moth (Plutella xylostella); experiment: Activity against diamond back moth, cabbage leaf disk dip; type: in vivo; settings: foliar
# Description: The active compounds were formulated in 50:50 acetone:water and 0.1% (vol/vol) Alkamuls EL 620 surfactant. A 6 cm leaf disk of cabbage leaves was dipped in the test solution for 3 seconds and allowed to air dry in a Petri plate lined with moist filter paper. The leaf disk was inoculated with 10 third instar larvae and kept at 25-27° C. and 50-60% humidity for 3 days. Mortality was assessed after 72 h of treatment.
# [9] = test system: Yellowfever Mosquito (Aedes aegyptii) Larvae; experiment: Activity against mosquito larvae via water treatment; type: in vivo; settings: read-out: mortality of yellowfever mosquito
# Description: 11. Activity Against Yellowfever Mosquito (Aedes aegyptii), House Mosquito (Culex quinquefasciatus) and Malaria Mosquito (Anopheles albimanus) Larvae Via Water Treatment
# Well plates were used as test arenas. The active ingredient was dissolved in acetone and diluted with water to obtain the concentrations needed. The final solutions containing appr. 1% acetone were placed into each well. Approximately 10 mosquito larvae (4th-instars) in 1 ml water were added to each well. Larvae were fed one drop of liver powder each day. The dishes were covered and maintained at 22° C. Mortality was recorded daily and dead larvae and live or dead pupae were removed daily. At the end of the test remaining live larvae were recorded and percent mortality was calculated.
# [10] = 300 ppm, leaf dipped, at 5 days, read-out: mortality
# [11] = 2500 ppm, leaf disks sprayed with 2.5 μl, 6 days, compared to 0% mortality of untreated controls, read-out: mortality
# [12] = 300 ppm, leaf disk dipped, third instar larvae, after 72 h, read-out: mortality
Structure (SMILES),"mortality at 300 ppm [1, 10]",mortality at 300 ppm [2],mortality at 2500 ppm [3],"mortality at 2500 ppm [4, 11]",mortality at 2500 ppm [5],mortality at 300 ppm [6],mortality at 2500 ppm [7],"mortality at 300 ppm [8, 12]",also measured
CCN(CC)S(=O)(=O)NC(=O)c1cccc(C)c1NC(=O)c1cc(Br)nn1-c1ncccc1Cl,,,,,,,,,melting point: 191 °C
CCS(C)=NC(=O)c1cccc(C)c1NC(=O)c1cc(Br)nn1-c1ncccc1Cl (stereo not drawn) [I.3-26],> 75%,> 90%,> 75%,> 75%,> 75%,> 50%,> 75%,> 75%,
Cc1cc(I)cc(C(=O)N=S(C)C)c1NC(=O)c1cc(Br)nn1-c1ncccc1Cl [I.3-22],> 75%,> 90%,> 75%,> 75%,> 75%,> 50%,> 75%,> 75%,
CCS(C)=NC(=O)c1cc(Cl)cc(C)c1NC(=O)c1cc(Br)nn1-c1ncccc1Cl (stereo not drawn) [I.3-25],> 75%,> 90%,> 75%,> 75%,> 75%,> 50%,> 75%,> 75%,
CCN(CC)S(=O)(=O)NC(=O)c1cccc(C)c1NC(=O)c1cc(C(F)(F)F)nn1-c1ncccc1Cl [I.1-53],,,,,,,> 75%,,mortality at 300 ppm [1]: > 75%; mortality at 2500 ppm [4]: > 75%
Cc1cccc(C(=O)NS(=O)(=O)N(C)C)c1NC(=O)c1cc(C(F)(F)F)nn1-c1ncccc1Cl,,,,,,,,,melting point: 183 °C
CCS(C)=NC(=O)c1cc(I)cc(C)c1NC(=O)c1cc(C(F)(F)F)nn1-c1ncccc1Cl (stereo not drawn) [I.3-30],> 75%,> 90%,> 75%,> 75%,> 75%,> 50%,> 75%,> 75%,
CCS(C)=NC(=O)c1cccc(C)c1NC(=O)c1cc(C(F)(F)F)nn1-c1ncccc1Cl (stereo not drawn) [I.3-29],> 75%,,> 75%,> 75%,> 75%,> 50%,> 75%,> 75%,
CCN(CC)S(=O)(=O)NC(=O)c1cc(Cl)cc(C)c1NC(=O)c1cc(C(F)(F)F)nn1-c1ncccc1Cl [I.1-37],,,,,,,,,mortality at 10 ppm [9]: > 70%
CCS(C)=NC(=O)c1cc(Cl)cc(C)c1NC(=O)c1cc(C(F)(F)F)nn1-c1ncccc1Cl (stereo not drawn) [I.3-28],> 75%,> 90%,> 75%,> 75%,> 75%,> 50%,> 75%,> 75%,
CCS(C)=NC(=O)c1cc(C#N)cc(C)c1NC(=O)c1cc(Br)nn1-c1ncccc1Cl (stereo not drawn) [I.3-61],,,,,,,,> 75%,
Cc1cc(Cl)cc(C(=O)N=S(C)C)c1NC(=O)c1cc(C(F)(F)F)nn1-c1ncccc1Cl [I.3-8],> 75%,> 90%,> 75%,> 75%,> 75%,> 50%,> 75%,> 75%,
CCN(C)S(=O)(=O)NC(=O)c1cccc(C)c1NC(=O)c1cc(C(F)(F)F)nn1-c1ncccc1Cl [I.1-61],,,,,,,,,mortality at 300 ppm [1]: > 75%; mortality at 300 ppm ([8]; 72 h): > 75%
CCS(C)=NC(=O)c1cc(I)cc(C)c1NC(=O)c1cc(Br)nn1-c1ncccc1Cl (stereo not drawn) [I.3-27],> 75%,> 90%,> 75%,> 75%,> 75%,> 50%,> 75%,> 75%,
Cc1cc(C#N)cc(C(=O)N=S(C)C)c1NC(=O)c1cc(Br)nn1-c1ncccc1Cl [I.3-60],,,,,,,,> 75%,
Cc1cccc(C(=O)N=S(C)C)c1NC(=O)c1cc(C(F)(F)F)nn1-c1ncccc1Cl [I.3-24],> 75%,,> 75%,> 75%,> 75%,> 50%,> 75%,> 75%,
CCS(CC)=NC(=O)c1cc(Cl)cc(C)c1NC(=O)c1cc(Br)nn1-c1ncccc1Cl [I.3-3],> 75%,> 90%,,> 75%,> 75%,> 50%,> 75%,,
Cc1cc(I)cc(C(=O)N=S(C)C)c1NC(=O)c1cc(C(F)(F)F)nn1-c1ncccc1Cl [I.3-23],> 75%,> 90%,> 75%,> 75%,> 75%,> 50%,> 75%,> 75%,
"Cc1cc(Cl)cc(C(=O)N=S2(=O)CCCCC2)c1CC(=O)c1cc(Br)nn1-c1ccccc1Cl [I.4-22, 2-{2-[5-Bromo-2-(2-chloro-phenyl)-2H-pyrazol-3-yl]-2-oxo-ethyl}-5-chloro-3-methyl-N-(1-oxo-hexahydro-1lambda*6*-thiopyran-1-ylidene)-benzamide]",> 75%,,> 75%,> 75%,> 75%,,> 75%,> 75%,
Cc1cccc(C(=O)NS(=O)(=O)N(C)C)c1NC(=O)c1cc(Br)nn1-c1ncccc1Cl [I.1-30],,,,,,,,,mortality at 300 ppm [1]: > 75%
CCN(C)S(=O)(=O)NC(=O)c1cc(Cl)cc(C)c1NC(=O)c1cc(C(F)(F)F)nn1-c1ncccc1Cl [I.1-45],,,,,,,,,mortality at 300 ppm [1]: > 75%; mortality at 300 ppm ([8]; 72 h): > 75%
Cc1cc(C#N)cc(C(=O)N=S(C)C)c1NC(=O)c1cc(C(F)(F)F)nn1-c1ncccc1Cl [I.3-55],,,> 75%,> 75%,> 75%,,> 75%,> 75%,
CCS(C)=NC(=O)c1cc(C#N)cc(C)c1NC(=O)c1cc(C(F)(F)F)nn1-c1ncccc1Cl (stereo not drawn),,,,,,,,,melting point: 65 °C
CCN(C)S(=O)(=O)NC(=O)c1cccc(C)c1NC(=O)c1cc(Br)nn1-c1ncccc1Cl [I.1-27],,,,,,,,,mortality at 300 ppm [1]: > 75%; mortality at 300 ppm ([8]; 72 h): > 75%
Cc1cc(Cl)cc(C(=O)NS(=O)(=O)N(C)C)c1NC(=O)c1cc(Br)nn1-c1ncccc1Cl [I.1-9],,,,,,,,,mortality at 300 ppm [1]: > 75%; mortality at 300 ppm ([8]; 72 h): > 75%
CCN(C)S(=O)(=O)NC(=O)c1cc(Cl)cc(C)c1NC(=O)c1cc(Br)nn1-c1ncccc1Cl [I.1-7],,,,,,,,,mortality at 300 ppm [1]: > 75%; mortality at 300 ppm ([8]; 72 h): > 75%
Cc1cc(Cl)cc(C(=O)NS(=O)(=O)N(C)C)c1NC(=O)c1cc(C(F)(F)F)nn1-c1ncccc1Cl [I.1-47],,,,,,,,,mortality at 300 ppm [1]: > 75%; mortality at 300 ppm ([8]; 72 h): > 75%
